{"source": "paper PMC4338372", "about": "(FEBS Open Bio, 2015)", "origin": "cited, not measured here", "system": "Src family kinase", "details": "macrophages; inhibition of Src family kinase"}
{"molecule": "CC(C)(C)n1nc(-c2ccc(Cl)cc2)c2c(N)ncnc21", "note": "[PP2]", "values": [{"measurement": "phagocytosis efficiency", "result": "decreases phagocytosis efficiency in macrophages"}]}
